From patent US20060252107A1, “Compositions and methods for diagnosing and treating retinal diseases” (Acucela, Inc., priority 2005, published 2006)

Assays:
[1] = test system: ganglion cells; assay: mature retinal cell culture system with A2E as cell stressor, ganglion cell survival; format: cell-based, Porcine; conditions: 20 μM A2E for 48 hours
Method: (§1) The retinal cell culture system may be exposed to A2E at any concentration between 1 pM and 200 μM (e.g., 1 pM, 10 pM, 100 pM, 250 pM, 500 pM, 750 pM, 1 nM, 10 nM, 50 nM, 100 nM, 250 nM, 500 nM, 750 nM, 1 μM, 2 μM, 5 μM, 7.5 μM, 10 μM, 15 μM, 20 μM, 25 μM, 40 μM, 50 μM, 75 μM, 100 μM, 120 μM, 200 μM); or 250 μM, 500 μM, or 750 μM), between 1 μM and 40 μM, or between 10 μM and 20 μM, for a period of time, for example, between 2 and 48 hours or between 12 and 36 hours. In another embodiment, the cell culture may be exposed to lower concentrations of A2E (for example, between 1 pM and 10 μM or between 1 nM and 1 μM) for longer times (such as about one week, about two weeks, or about one month (4 weeks)).
(§2) Porcine eyes are obtained from Kapowsin Meats, Inc. (Graham, Wash.). Eyes are enucleated, and muscle and tissue are cleaned away from the orbit. Eyes are cut in half along their equator and the neural retina is dissected from the […] part of the eye in buffered saline solution, according to standard methods known in the art. […]
(§3) The retinal neuronal cells are cultured for 1, 3, 6, and 8 weeks, and the cells are analyzed by immunohistochemistry at each time point. […]
(§4) Cultures are analyzed by counting rhodopsin-labeled photoreceptors and NFM-labeled ganglion cells using an Olympus 1X81 or CZX41 microscope (Olympus, Tokyo, Japan). […]

[2] = test system: photoreceptor cells; assay: mature retinal cell culture system with A2E as cell stressor, photoreceptor survival; format: cell-based, Porcine
Method: as §1, §2, §3, §4

CC(C=CC1=C(C)CCCC1(C)C)=CC=CC(C)=Cc1cc(C=CC=C(C)C=CC2=C(C)CCCC2(C)C)cc[n+]1CCO [A2E, N-retinylidene-N-retinyl-ethanolamine]
survival of ganglion cells [1]: not adversely affected | death of photoreceptor cells ([2]; 20 μM A2E for 48 hours, compared to photoreceptor cells not exposed to A2E): more than 90% | effect of exposure of the retinal neuronal cell culture system to A2E ([2]; concentration and time not stated): selective killing of certain cells, particularly photoreceptor cells
